Data from PubChem BioAssay AID1159562 (GlaxoSmithKline (GSK), 2015).
Calls of active or inactive are those of the source. How the calls were made is not given here.

tested on: Trypanosoma brucei growth inhibition, luminescence; assay: Trypanosoma brucei growth inhibition, luminescence (AID 1159562);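 further: parasites grew with compound for 24 h before the luminescence read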

SMILES | IC50
CC(C)n1c(-c2nonc2N)nc2cccc(OCCN3CCCC3)c21 | 0.79 µM
CC1=NN(C(=O)CCn2cnc([N+](=O)[O-])n2)C(O)(C(F)(F)F)C1 (stereo unspecified) | > 40 µM (inactive)
O=C(CN(c1cccc(C(F)(F)F)c1)S(=O)(=O)c1ccc(Cl)cc1)NCc1ccc(F)c(F)c1 | 25 µM
O=C(Nc1nc(-c2ccccn2)cs1)c1ccc(S(=O)(=O)N2CCCCC2)cc1 | 0.63 µM
O=c1ccc2ccc(F)c3c2n1C[C@H]3CN1CCC(NCc2cc3ccccc3o2)CC1 | 2 µM
CC(CNS(=O)(=O)c1ccc(OC(F)F)cc1)c1ccc(NC(=O)c2ccncc2)cc1 (stereo unspecified) | 20 µM
Cc1cccc(Nc2nc(-c3ccccn3)cs2)n1 | 0.5 µM
O=C(Nc1nc2ccccc2[nH]1)c1c(O)c2cccc3c2n(c1=O)CC3 | 20 µM
Cc1cccc(N2CCCN(Cc3c[nH]c4ccccc34)CC2)n1 | 13 µM
O=C(CC1(O)C(=O)N(Cc2cccs2)c2ccc(Br)cc21)c1cccnc1 (stereo unspecified) | 0.79 µM
COc1cccc(-c2cc(C(F)(F)F)nc(-n3ccc([N+](=O)[O-])n3)n2)c1 | > 40 µM (inactive)
Cc1[nH]nc(C(F)(F)F)c1NC(=O)CCn1cc(Cl)c([N+](=O)[O-])n1 | 0.79 µM
Clc1cc(Br)ccc1OCCCCn1ccnc1 | 20 µM
CCCn1c(NC(=O)Cc2ccc(Cl)cc2)nc2ccccc21 | 3.2 µM
COc1ccc(OC)c(S(=O)(=O)N(Cc2c(F)cccc2F)[C@@H]2CCN(C#N)C2)c1 | 0.79 µM
NC(=O)c1ccc(-c2cccc(OCCN3CCN(C4CCCCC4)CC3)c2)cc1 | 16 µM
CC1CN(S(=O)(=O)c2ccc(NC(=O)c3cc(C4CC4)nc4c3cnn4C(C)C)cc2)CC(C)O1 (stereo unspecified) | 6.3 µM
O=C1NCCn2ccc(Nc3nc(NC4CCC(O)CC4)ncc3Cl)c21 (stereo unspecified) | 0.63 µM
Cc1nn(-c2nc3ccccc3s2)c2c1C(c1ccc(OCC(N)=O)cc1)SCC(=O)N2 (stereo unspecified) | 0.032 µM
NCc1csc(Nc2cc(Oc3ccccc3)ncn2)n1 | 0.79 µM
COc1ccc2ncc(=O)n(CCN3CCC(NCc4ccc(-c5cccs5)cc4)CC3)c2n1 | 6.3 µM
CN(C)S(=O)(=O)c1cccc(CSc2nnc(-c3ccc4c(c3)OCO4)o2)c1 | > 40 µM (inactive)

SMILES | IC50
CCn1c(NC(=O)Cc2ccc(F)cc2)nc2ccccc21 | 5 µM
Cc1c(Nc2cc(C3CC3)[nH]n2)ccc(C#N)c1Cl | 0.63 µM
Cc1ccc(S(=O)(=O)Cn2nnnc2C(c2cccnc2)N2CCN(c3ccccc3)CC2)cc1 (stereo unspecified) | > 40 µM (inactive)
Cc1ccc2nc(N(Cc3cccnc3)C(=O)CCc3ccccc3)sc2c1 | 20 µM
Cc1nc2nc(C)c(Cc3ccc(C(C)C)cc3)c(=O)n2[nH]1 | > 40 µM (inactive)
Cc1cc(Br)cc(C(=O)c2c(C(C)C)c(=O)[nH]c(=O)n2Cc2ccnc(N)c2)c1 | 25 µM
CCCNC(=O)Nc1cccc(-c2nc3ncccc3o2)c1 | 1 µM
Cc1nc(C(=O)Nc2ccc3c(c2)OCO3)nn1-c1ccc(Cl)cc1 | > 40 µM (inactive)
CC(C)CC(=O)NC(c1cccs1)c1ccc2cccnc2c1O (stereo unspecified) | 0.63 µM
CCCc1nc2nc(N)nc(N)c2cc1CC | 25 µM
CCOc1ccc(NC(=O)c2ccc(NC(=O)NC3CCCCC3)cc2)cc1 | 0.5 µM
O=C(NCCc1csc(-c2ccc(F)cc2)n1)c1cccs1 | 0.2 µM
COc1ccc(-c2cnc(NC(=O)c3cc(-c4ccccn4)n[nH]3)n2C)cc1 | 10 µM
CCN(CC)c1nc(N(C)C)nc2c1CN(Cc1ccccc1)CC2 | 20 µM
O=C1COC(c2ccccc2)(c2ccccc2)CN1C1CCN(Cc2ccc(-n3ccnc3)cc2)CC1 | 1 µM
CN1CCN(c2nc(-c3ccc(Cl)cc3)c3c(N)n(C)nc3n2)CC1 | 32 µM
Cc1c(C#N)c([N+](=O)[O-])nn1Cc1cccc(Cl)c1Cl | 25 µM
C[C@@H](Oc1cc(-n2cnc3cc(N)ccc32)sc1C(N)=O)c1ccccc1Cl | 0.79 µM
CCOc1ccc(N(C)S(=O)(=O)c2ccc3[nH]cc(C(=O)NC4CCCC4)c(=O)c3c2)cc1 | 0.5 µM
O=C(CCCn1cnc([N+](=O)[O-])n1)Nc1cccc(Cl)c1 | > 40 µM (inactive)
COc1cc(-c2nc(N3CCOCC3)sc2-c2ccnc(NC3CCOCC3)n2)ccc1Cl | > 40 µM (inactive)
Cn1c(CN2CCN(c3ncc(C(F)(F)F)cc3Cl)CC2)nc2ccncc21 | > 40 µM (inactive)

SMILES | IC50
COc1ccc(S(=O)(=O)NCc2ccc(-c3ccc(CN(C)CCO)cc3)cc2)cc1 | 3.2 µM
COc1ccc(CN2C(=O)C(O)(CC(=O)c3ccncc3)c3cc(Br)ccc32)cc1OC (stereo unspecified) | 0.63 µM
N#Cc1ccc(S(=O)(=O)N2CCN(Cc3cccc(-c4ccncc4)c3)CC2)cc1 | 20 µM
Cn1ccnc1CN1CCc2[nH]cnc2C1c1ccccc1OCc1ccccc1 (stereo unspecified) | 0.5 µM
c1ccc(-c2nc(NCc3ccco3)c3ccccc3n2)nc1 | 6.3 µM
Cc1ccc(NC(=O)c2ccnc(N3CCCC3)c2)cc1-c1cc(C(N)=O)ccc1C | 0.25 µM
COc1ccc(NS(=O)(=O)c2cc(NC(=O)Cc3ccc(C)cc3)ccc2N2CCOCC2)cc1 | 7.9 µM
CN(C)c1ccc(N)cc1CN(CC1CCCO1)S(C)(=O)=O (stereo unspecified) | > 40 µM (inactive)
Cc1cc(NC(=O)CC2CCCCC2)n(-c2nc3c(c(=O)[nH]2)CCC3)n1 | 0.16 µM
CS(=O)(=O)N1CCC(Nc2ncc(Br)c(Nc3cccc(F)c3C(N)=O)n2)CC1 | 0.016 µM
O=C1NCc2cccc(Nc3nc(NC4CCC(O)CC4)ncc3Br)c21 (stereo unspecified) | 0.13 µM
COc1cc(Nc2nccc(Nc3onc(C)c3C)n2)cc(S(=O)(=O)C2CCOCC2)c1 | 0.5 µM
CN(C)S(=O)(=O)c1cccc(C(=O)Nc2nc(-c3ccccn3)cs2)c1 | 0.63 µM
CC(C)(C)CC(=O)NCc1noc(COc2ccccc2)n1 | 0.79 µM
O=C(NCCc1csc(-c2cccc(F)c2)n1)c1ccco1 | 0.63 µM
Cc1cc(C#N)c([N+](=O)[O-])cc1Br | 4 µM
CCOc1cc(NCCCN2CCN(C)CC2)c2ncccc2c1 | 20 µM
COc1ccc(Cl)cc1CC(=O)Nc1n[nH]c(-c2ccccn2)n1 | > 40 µM (inactive)
Cn1nc(C(=O)N2CCc3ccccc32)c2c1CCS(=O)(=O)C2 | 6.3 µM
CC(C)c1sc(Cl)nc1C(=O)NCCc1nc(C(=O)Nc2ccc3c(c2)OCO3)cs1 | 25 µM
Cc1ccc(Nc2nc(-c3ccccn3)cc(N3CCCC(O)C3)n2)cc1 (stereo unspecified) | 3.2 µM
COc1ccc2ncc(Cl)c(CCN3CC[C@H](NCc4cc5c(cn4)OCS5)[C@@H](O)C3)c2n1 | 0.63 µM

SMILES | IC50
Nc1nc(-c2ccccn2)nc(-n2nc(-c3ccccc3)cc2N)n1 | 3.2 µM
NCC(Cc1ccccc1)NC(=O)c1cnc(-c2c[nH]c3ncccc23)s1 (stereo unspecified) | 1 µM
COc1ccc(CN(C)Cc2ccncc2)cc1-c1ccc(S(=O)(=O)NC2CCC2)s1 | 20 µM
OCC1CCCCN1c1cc(-c2ccccn2)nc(Nc2ccccc2)n1 (stereo unspecified) | 6.3 µM
CCc1nn(-c2ncc(F)c(NC(C)C)n2)c(N)c1C1CCCCC1 | 16 µM
COc1ccc(C2CC(c3ccccc3Cl)=NN2C(=O)CNC(=O)C2CCC2)cc1 (stereo unspecified) | 0.5 µM
COc1ccc(CNc2nsc3ccccc23)cc1OC | 6.3 µM
O=S(=O)(c1ccccc1C(F)(F)F)N1CCN(Cc2ccc(-n3ccnc3)cc2)CC1 | > 40 µM (inactive)
CC1CCCN(S(=O)(=O)c2ccc(C(=O)Nc3nc(-c4ccccn4)cs3)cc2)C1 (stereo unspecified) | 0.4 µM
CN(C)Cc1ccc(-c2ccc(S(=O)(=O)NCC3CCCO3)c(F)c2)cc1 (stereo unspecified) | 40 µM
Cc1nn(C2CCS(=O)(=O)C2)c(C)c1CN(C)C(=O)C=Cc1sc2ccccc2c1Cl (stereo unspecified) | 25 µM
CN(Cc1cccnc1)Cc1ccc(N2CCN(C(=O)C3(c4ccc(Cl)cc4)CC3)CC2)nc1 | 25 µM
Cc1ccc(Nc2nc(N)nc(CNC(c3nc4ccccc4[nH]3)C(C)C)n2)cc1 (stereo unspecified) | 5 µM
O=C(Nc1n[nH]c(-c2ccccn2)n1)C1CC1c1ccccc1 (stereo unspecified) | 20 µM
NC(=O)c1ccccc1Nc1nc(NC2CCCCC2)nc2[nH]ccc12 | 10 µM
CS(=O)(=O)c1ccc(Nc2nccc(-c3cnn4ncccc34)n2)cc1 | 0.2 µM
O=C(Nc1nc2ccccc2[nH]1)c1ccc2nc[nH]c2c1 | > 40 µM (inactive)
CCS(=O)(=O)Nc1ccc(C2=NN(C(=O)c3cccs3)C(c3ccccc3OC)C2)cc1 (stereo unspecified) | 16 µM
O=C(Cn1cnc([N+](=O)[O-])n1)Nc1ccc(Cl)cc1C(=O)c1ccccc1 | 32 µM
N#Cc1cccc(CNc2ccc(-c3cnn(CC4CC4)c(=O)c3C#N)cc2)c1 | 13 µM
CS(=O)(=O)NC1CCC(Nc2ncc(Br)c(Nc3ccccc3C(N)=O)n2)CC1 (stereo unspecified) | 0.079 µM
CCc1cccc(-n2nc(OCC(=O)NC3CCCC3)c3cccnc32)c1 | > 40 µM (inactive)

SMILES | IC50
COc1cccc(CN(C)Cc2nc(N)c3c(C)c(C)sc3n2)c1 | 4 µM
COc1ccc(C(=O)Nc2c(C)nn(COc3cccc(C(F)(F)F)c3)c2C)cc1 | 0.79 µM
CC(Cn1ccnc1)NC(=O)C1CC1c1cccc(Cl)c1Cl (stereo unspecified) | > 40 µM (inactive)
N#Cc1cc(-c2ccnc(Nc3cccc(CN4CCOCC4)c3)n2)ccc1NCCN | 1.3 µM
C[C@@H](Oc1cc(-n2cnc3ccc(C(O)CO)cc32)sc1C(N)=O)c1ccccc1C(F)(F)F (stereo partly specified) | 0.79 µM
O=C(NCc1ccncc1)c1ccccc1N1CCCN(C(=O)Cc2ccc(F)c(F)c2)CC1 | 20 µM
O=C(Nc1cccc(Cl)c1)Nc1ccc([N+](=O)[O-])cc1Cl | 3.2 µM
O=C(Cc1ccccc1)Nc1ccccc1C(=O)Nc1nccs1 | 0.25 µM
Cc1c(CNC(=O)c2ccc(Cn3cc(Cl)c([N+](=O)[O-])n3)cc2)cnn1C | 10 µM
O=C(NCCc1ccccn1)C(c1cn[nH]c1)N1CCN(c2ccc(Cl)c(Cl)c2)CC1 (stereo unspecified) | > 40 µM (inactive)
CCN(CC)S(=O)(=O)c1ccc(C(=O)Nc2cc(C)nn2-c2nc(C)c(C)c(=O)[nH]2)cc1 | 0.32 µM
O=C(CSc1ccc(F)cc1)N[C@@H](Cc1cnc[nH]1)C(=O)NCCc1ccccc1 | > 40 µM (inactive)
CCC(=O)N1N=C(c2ccc3c(c2)CCCC3)Sc2c1ncn2C(=O)CC | 20 µM
N#Cc1cc([N+](=O)[O-])ccc1NC1CCCCCC1 | 3.2 µM
CC(c1ccccn1)N(C)Cc1nc2ccccc2n1C(C)C (stereo unspecified) | 10 µM
CC(=O)Nc1ccc(-c2cnc(N)c(-c3nc4ccc(F)cc4[nH]3)c2)cc1 | 2 µM
Cc1nc(-c2ccncc2)ncc1C(C)NC(=O)c1ccc(Cl)s1 (stereo unspecified) | 1 µM
Cc1ccc(C)c(-n2nnnc2Sc2nc([N+](=O)[O-])nn2C)c1 | 16 µM
